According to PubChem BioAssay (NCI):
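Dose response: 5 concentrations. Exposure: 48 h. Format: 96-well plates. Endpoint: linear interpolation; highest concentration if not reached. The concentration for full growth arrest is given as TGI.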

What was measured:
Experiment in all cases: inhibition of tumour cell growth, NCI panel, 48 h
[1] = tested on: 786-0 renal
[2] = tested on: A549 NSCLC
[3] = tested on: ACHN renal
[4] = tested on: BT-549 breast
[5] = tested on: CAKI-1 renal
[6] = tested on: CCRF-CEM leukemia
[7] = tested on: COLO 205 colon
[8] = tested on: DU-145 prostate
[9] = tested on: EKVX NSCLC
[10] = tested on: HCC-2998 colon
[11] = tested on: HCT-116 colon
[12] = tested on: HCT-15 colon
[13] = tested on: HL-60(TB) leukemia
[14] = tested on: HOP-62 NSCLC
[15] = tested on: HOP-92 NSCLC
[16] = tested on: HS 578T breast
[17] = tested on: HT29 colon
[18] = tested on: IGROV1 ovarian
[19] = tested on: K-562 leukemia
[20] = tested on: KM12 colon
[21] = tested on: LOX IMVI melanoma
[22] = tested on: M14 melanoma
[23] = tested on: MALME-3M melanoma
[24] = tested on: MCF7 breast
[25] = tested on: MDA-MB-231 breast
[26] = tested on: MDA-MB-435
[27] = tested on: MDA-N
[28] = tested on: MOLT-4 leukemia
[29] = tested on: NCI-H226 lung
[30] = tested on: NCI-H23 lung
[31] = tested on: NCI-H460 lung
[32] = tested on: NCI-H522 lung
[33] = tested on: NCI/ADR-RES ovarian
[34] = tested on: OVCAR-3 ovarian
[35] = tested on: OVCAR-4 ovarian
[36] = tested on: OVCAR-5 ovarian
[37] = tested on: OVCAR-8 ovarian
[38] = tested on: PC-3 prostate
[39] = tested on: RPMI-8226 leukemia
[40] = tested on: RXF 393 renal
[41] = tested on: SF-268 CNS
[42] = tested on: SF-295 CNS
[43] = tested on: SF-539 CNS
[44] = tested on: SK-MEL-2 melanoma
[45] = tested on: SK-MEL-28 melanoma
[46] = tested on: SK-MEL-5 melanoma
[47] = tested on: SK-OV-3 ovarian
[48] = tested on: SN12C renal
[49] = tested on: SNB-19 CNS
[50] = tested on: SNB-75 CNS
[51] = tested on: SR leukemia
[52] = tested on: SW-620 colon
[53] = tested on: T-47D breast
[54] = tested on: TK-10 renal
[55] = tested on: U251 CNS
[56] = tested on: UACC-257 melanoma
[57] = tested on: UACC-62 melanoma
[58] = tested on: UO-31 renal

CCN(CC)CCn1c(=O)c2ccccc2n2c3c(=O)n(C)c(=O)n(C)c3nc12
TGI [1]: 5.43 µM
TGI [2]: 2.05 µM
TGI [3]: 1.09 µM
TGI [4]: 4.22 µM
TGI [5]: 3.91 µM
TGI [6]: 13.1 µM
TGI [7]: 14.5 µM
TGI [8]: 4.47 µM
TGI [9]: 11.7 µM
TGI [10]: 6.8 µM
TGI [11]: 8.71 µM
TGI [12]: 66.2 µM
TGI [13]: 2.5 µM
TGI [14]: 4.62 µM
TGI [15]: 7.85 µM
TGI [16]: 19.6 µM
TGI [17]: 9.55 µM
TGI [18]: 23.3 µM
TGI [19]: 19.4 µM
TGI [20]: 6.03 µM
TGI [21]: 31.3 µM
TGI [22]: 13 µM
TGI [23]: 10.6 µM
TGI [24]: 6.2 µM
TGI [25]: 19.3 µM
TGI [26]: 15.9 µM
TGI [27]: 17.6 µM
TGI [28]: 4.73 µM
TGI [29]: 3.35 µM
TGI [30]: 10.1 µM
TGI [31]: 1.65 µM
TGI [32]: 9 µM
TGI [33]: 30.2 µM
TGI [34]: 16.4 µM
TGI [35]: 23.5 µM
TGI [36]: 7.09 µM
TGI [37]: 8.06 µM
TGI [38]: 20.4 µM
TGI [39]: 5.94 µM
TGI [40]: 34.4 µM
TGI [41]: 12.1 µM
TGI [42]: 10.1 µM
TGI [43]: 2.95 µM
TGI [44]: 6.61 µM
TGI [45]: 18.3 µM
TGI [46]: 2.94 µM
TGI [47]: 4.77 µM
TGI [48]: 10.2 µM
TGI [49]: 38.1 µM
TGI [50]: 7.46 µM
TGI [51]: 5.15 µM
TGI [52]: 16.1 µM
TGI [53]: 20.8 µM
TGI [54]: 52.5 µM
TGI [55]: 6.03 µM
TGI [56]: 16.7 µM
TGI [57]: 3.22 µM
TGI [58]: 6.29 µM

COC(=O)C(C)(Cc1ccc2c(c1)nnn2C(C)=O)NC(C)=O (stereo not given)
TGI [1]: > 100 µM
TGI [2]: > 100 µM
TGI [3]: > 100 µM
TGI [4]: > 100 µM
TGI [5]: > 100 µM
TGI [6]: > 100 µM
TGI [7]: > 100 µM
TGI [8]: > 100 µM
TGI [9]: > 100 µM
TGI [10]: > 100 µM
TGI [11]: > 100 µM
TGI [12]: > 100 µM
TGI [13]: > 100 µM
TGI [15]: > 100 µM
TGI [16]: > 100 µM
TGI [17]: > 100 µM
TGI [18]: > 100 µM
TGI [19]: > 100 µM
TGI [20]: > 100 µM
TGI [21]: > 100 µM
TGI [22]: > 100 µM
TGI [23]: > 100 µM
TGI [24]: > 100 µM
TGI [25]: > 100 µM
TGI [26]: > 100 µM
TGI [27]: > 100 µM
TGI [28]: > 100 µM
TGI [29]: > 100 µM
TGI [30]: > 100 µM
TGI [31]: > 100 µM
TGI [32]: > 100 µM
TGI [33]: > 100 µM
TGI [34]: > 100 µM
TGI [35]: > 100 µM
TGI [36]: > 100 µM
TGI [37]: > 100 µM
TGI [38]: > 100 µM
TGI [39]: > 100 µM
TGI [40]: > 100 µM
TGI [41]: > 100 µM
TGI [42]: > 100 µM
TGI [44]: > 100 µM
TGI [45]: > 100 µM
TGI [46]: > 100 µM
TGI [47]: > 100 µM
TGI [49]: > 100 µM
TGI [50]: > 100 µM
TGI [51]: > 100 µM
TGI [52]: > 100 µM
TGI [53]: > 100 µM
TGI [54]: > 100 µM
TGI [56]: > 100 µM
TGI [57]: > 100 µM
TGI [58]: > 100 µM

Clc1ccc(C(c2ccc(Cl)cc2)c2cncnc2)cc1
TGI [1]: 33 µM
TGI [2]: 38.5 µM
TGI [3]: 36.4 µM
TGI [4]: 27.4 µM
TGI [5]: 39.7 µM
TGI [6]: 44.8 µM
TGI [7]: 33.2 µM
TGI [8]: 31.3 µM
TGI [11]: 26.9 µM
TGI [12]: 39.1 µM
TGI [13]: > 100 µM
TGI [14]: 31.3 µM
TGI [16]: 39.9 µM
TGI [17]: 28.3 µM
TGI [18]: 33.8 µM
TGI [19]: > 100 µM
TGI [20]: 37 µM
TGI [21]: 31.2 µM
TGI [22]: 30 µM
TGI [23]: 36.1 µM
TGI [24]: 30 µM
TGI [25]: 34 µM
TGI [26]: 28 µM
TGI [27]: 29.3 µM
TGI [28]: 67.6 µM
TGI [30]: 36.9 µM
TGI [31]: 31.4 µM
TGI [32]: 33.3 µM
TGI [33]: 44.4 µM
TGI [34]: 27.9 µM
TGI [35]: 29 µM
TGI [36]: 29.5 µM
TGI [37]: 42.5 µM
TGI [38]: 27.3 µM
TGI [39]: > 100 µM
TGI [40]: 25.2 µM
TGI [41]: 33.8 µM
TGI [42]: 35.6 µM
TGI [45]: 33.4 µM
TGI [46]: 25.9 µM
TGI [47]: 33.4 µM
TGI [48]: 36.6 µM
TGI [49]: 33 µM
TGI [51]: > 100 µM
TGI [53]: 32.3 µM
TGI [54]: 30.8 µM
TGI [55]: 32.1 µM
TGI [56]: 49.1 µM
TGI [57]: 28.7 µM
TGI [58]: 25.1 µM

Cc1cc(O)c(C=NC(=S)C(N)=S)c(=O)o1
TGI [1]: > 100 µM
TGI [2]: > 100 µM
TGI [3]: > 100 µM
TGI [4]: > 100 µM
TGI [5]: > 100 µM
TGI [6]: > 100 µM
TGI [7]: > 100 µM
TGI [8]: > 100 µM
TGI [9]: > 100 µM
TGI [10]: > 100 µM
TGI [11]: > 100 µM
TGI [12]: > 100 µM
TGI [13]: > 100 µM
TGI [14]: > 100 µM
TGI [15]: > 100 µM
TGI [16]: > 100 µM
TGI [17]: > 100 µM
TGI [18]: > 100 µM
TGI [19]: > 100 µM
TGI [20]: > 100 µM
TGI [21]: > 100 µM
TGI [22]: > 100 µM
TGI [24]: > 100 µM
TGI [25]: > 100 µM
TGI [26]: > 100 µM
TGI [27]: > 100 µM
TGI [28]: > 30.1 µM
TGI [29]: > 100 µM
TGI [30]: > 100 µM
TGI [31]: > 100 µM
TGI [32]: > 100 µM
TGI [33]: > 100 µM
TGI [34]: > 100 µM
TGI [35]: > 100 µM
TGI [36]: > 100 µM
TGI [37]: > 100 µM
TGI [38]: > 100 µM
TGI [39]: > 100 µM
TGI [40]: > 100 µM
TGI [41]: > 100 µM
TGI [42]: > 100 µM
TGI [43]: > 100 µM
TGI [44]: > 100 µM
TGI [45]: > 100 µM
TGI [46]: > 100 µM
TGI [47]: > 100 µM
TGI [48]: > 100 µM
TGI [49]: > 100 µM
TGI [50]: > 100 µM
TGI [51]: > 100 µM
TGI [52]: > 100 µM
TGI [53]: > 100 µM
TGI [54]: > 100 µM
TGI [55]: > 100 µM
TGI [56]: > 100 µM
TGI [57]: > 100 µM
TGI [58]: > 100 µM

CC(=O)OCC1OC(NC(=S)CCSc2nc3ccccc3c(=O)n2-c2ccccc2)C(OC(C)=O)C(OC(C)=O)C1OC(C)=O (stereo not given)
TGI [1]: > 100 µM
TGI [2]: > 100 µM
TGI [3]: > 100 µM
TGI [4]: > 100 µM
TGI [5]: > 100 µM
TGI [6]: > 100 µM
TGI [7]: > 100 µM
TGI [8]: > 100 µM
TGI [9]: > 100 µM
TGI [10]: > 100 µM
TGI [11]: > 100 µM
TGI [12]: > 100 µM
TGI [13]: 88.1 µM
TGI [14]: > 100 µM
TGI [15]: 98.1 µM
TGI [16]: > 100 µM
TGI [17]: > 100 µM
TGI [18]: 25.1 µM
TGI [19]: > 100 µM
TGI [20]: > 100 µM
TGI [21]: > 100 µM
TGI [22]: > 100 µM
TGI [23]: > 100 µM
TGI [24]: > 100 µM
TGI [25]: > 100 µM
TGI [26]: > 100 µM
TGI [27]: > 100 µM
TGI [28]: > 100 µM
TGI [29]: > 100 µM
TGI [30]: > 100 µM
TGI [31]: > 100 µM
TGI [32]: > 100 µM
TGI [33]: > 100 µM
TGI [34]: > 100 µM
TGI [36]: > 100 µM
TGI [37]: > 100 µM
TGI [38]: > 100 µM
TGI [39]: > 100 µM
TGI [40]: 58.2 µM
TGI [41]: > 100 µM
TGI [42]: > 100 µM
TGI [43]: 34 µM
TGI [44]: 76.3 µM
TGI [45]: > 100 µM
TGI [46]: > 100 µM
TGI [47]: > 100 µM
TGI [48]: > 100 µM
TGI [49]: > 100 µM
TGI [50]: 60.7 µM
TGI [51]: > 100 µM
TGI [52]: > 100 µM
TGI [53]: > 100 µM
TGI [55]: > 100 µM
TGI [56]: > 100 µM
TGI [57]: > 100 µM
TGI [58]: > 100 µM
